Results: patent US12187703B2, “Crystalline forms of N-(3-(2-(2-hydroxyethoxy)-6-morpholinopyridin-4-yl)-4-methvlphenyl)-2 (trifluoromethyl)isonicotinamide as Raf inhibitors for the treatment of cancer” (NOVARTIS AG, priority 2019, dated 2025)
Values joined by “and” are separate entries in the source; they are usually repeats but may differ in a detail not shown here. Equal values may be shown once. Read-outs that look alike come from different tables or passages of the source.

What was measured:
Type in all cases: physicochemical
[1] = Stability testing, solid state bulk (UPLC, color, XRPD, TGA); settings: for Degradation Products (DP), UPLC / TGA (%) Weight loss at 175° C. / XRPD: solid state
Protocol: (§1) X-ray powder diffraction (XRPD) analysis of all polymorph forms was performed using a Bruker D8 Discover x-ray diffractometer with XYZ stage. Measurements were taken at about 40 kV and 1 mA under the following conditions:
(§2) Crystalline Monohydrate Form HA was analysed by thermogravimetric analysis (TGA) using a Discovery Thermogravimetric Analysis Calorimeter from TA instruments under the following conditions (see Table 6).
(§3) No notable change in chemical purity, nor change in XRPD, nor change in TGA, was observed.

[2] = Hygroscopicity, storage and solubility conclusions
Text: The term “non-hygroscopic” as used herein refers to a compound showing a water uptake of at most 2 w-% in the sorption cycle when measured with GMS (or DVS) at a relative humidity in the range of from 0 to 95% RH and a temperature of (25.0±0.1) ° C., based on the weight of the compound. Non-hygroscopic is preferably up to 0.2%.

[3] = Solubility at 25° C., 24 hours slurry; settings: for Solubility / solubility at 24 h: approx. at 25° C., target concentration 10 mg/mL; for Final pH / XRPD of solid after equilibration: 25° C.; for solubility at 24 h: 25 °C, thermodynamic from solid, read-out: Solubility
Protocol: A sample was weighed in a glass vial and solvent added to make a slurry followed by stirring or shaking at 25° C. for 24 hours. The amount of sample and solvents depends on the target concentration, e.g. if the target concentration is 10 mg/mL, the weight of the sample should be 10 mg and the amount of solvent volume should be 1 mL. The solid and liquid are separated by centrifugation at 13000 rpm for 2 minutes with 0.2 μm membrane. The filtrate is then used for the solubility test after appropriate dilution. The diluent is from the UPLC method. The solids obtained after equilibration were analyzed by XRPD after being dried at 40° C. under vacuum for 2 hours. DSC/TGA analysis was conducted for selected samples.

[4] = Behaviour under compression, grinding and granulation with water
[5] = Stability testing, solid state bulk (UPLC, color, XRPD, TGA); design: key: A: No change of color; settings: solid state
Protocol: as §1, §2, §3

[6] = Bulk density and flowability with ring shear tester
Protocol: (§4) Pilot manufacture batches producing Modification HA and Form A on kilogram scale were compared for their respective bulk powder properties. The particle size distribution (PSD) was determined according to the corresponding method for release. Other measurements were performed using technical methods known in the art or as described herein.

[7] = Particle size distribution by Fraunhofer light diffraction
Protocol: as §4
A few drops of the dispersing aid were added to an appropriate amount of test substance. The mixture was mixed intensively, e.g. on a vortex mixer, in order to wet the substance thoroughly and to form a smooth and homogeneous paste. The resultant paste was diluted with the dispersion liquid to a final volume of 3-6 ml and the dispersion mixed again. The cumulative volume distribution was determined using a laser light diffraction instrument as stated above. The parameters could be adjusted accordingly so that the test dispersion is representative, homogeneous and well dispersed.
Particle sizes were determined at the undersize values of 10%, 50% and 90% (×10, ×50, ×90), and additional values in question, from the cumulative volume distribution.

[8] = 1 week/80° C., glass vials with screw caps
[9] = 1 week/80° C./75% RH, open bottles
[10] = 2 weeks/50° C., glass vials with screw caps
[11] = 2 weeks/50° C./75% RH, open bottles
[12] = 2 weeks/80° C., glass vials with screw caps
[13] = 2 weeks/80° C./75% RH, open bottles
[14] = 3 months/40° C./75% RH, open bottles
[15] = 4 weeks/50° C., glass vials with screw caps
[16] = 4 weeks/50° C./75% RH, open bottles
[17] = Xenon light (approx. 1200 kLuxh)
[18] = pilot manufacture batch, kilogram scale

- Stability upon light exposure ([1]; 1200 kLuxh for 12 h): stable upon light exposure
- Degradation Products (DP), UPLC [1, 8]: 0.27%
- TGA (%) Weight loss at 175° C. [1, 8]: 3.60% and 3.56%
- XRPD [1, 8]: No change
- Degradation Products (DP), UPLC [1, 9]: 0.30% and 0.26%
- TGA (%) Weight loss at 175° C. [1, 9]: 3.76% and 3.86%
- XRPD [1, 9]: No change
- Degradation Products (DP), UPLC [1, 10]: 0.29% and 0.33%
- TGA (%) Weight loss at 175° C. [1, 10]: 3.76% and 3.89%
- XRPD [1, 10]: No change
- Degradation Products (DP), UPLC [1, 11]: 0.27% and 0.25%
- TGA (%) Weight loss at 175° C. [1, 11]: 3.66% and 3.65%
- XRPD [1, 11]: No change
- Degradation Products (DP), UPLC [1, 12]: 0.29%
- TGA (%) Weight loss at 175° C. [1, 12]: 3.67% and 3.76%
- XRPD [1, 12]: No change
- Degradation Products (DP), UPLC [1, 13]: 0.26% and 0.28%
- TGA (%) Weight loss at 175° C. [1, 13]: 3.60% and 3.66%
- XRPD [1, 13]: No change
- Degradation Products (DP), UPLC [1, 14]: 0.53% and 0.30%
- TGA (%) Weight loss at 175° C. [1, 14]: 3.55% and 3.60%
- XRPD [1, 14]: No change
- Degradation Products (DP), UPLC [1, 15]: 0.28% and 0.27%
- TGA (%) Weight loss at 175° C. [1, 15]: 3.75% and 3.63%
- XRPD [1, 15]: No change
- Degradation Products (DP), UPLC [1, 16]: 0.30% and 0.27%
- TGA (%) Weight loss at 175° C. [1, 16]: 3.78% and 3.69%
- XRPD [1, 16]: No change
- Degradation Products (DP), UPLC [1, 17]: 0.36% and 0.30%
- TGA (%) Weight loss at 175° C. [1, 17]: 3.76% and 3.90%
- XRPD [1, 17]: No change
- Stability in bulk ([1]; up to 80° C. over an extended period of time, no notable change in chemical purity, XRPD, TGA): highly stable in bulk
- Solubility, overall rating [2]: adequate solubility
- Stability when stored in bulk quantities [2]: stable when stored in bulk quantities
- Hygroscopicity ([2]; non-hygroscopic defined as water uptake at most 2 w-%, 0 to 95% RH, 25° C. (GMS/DVS)): non-hygroscopic
- Solubility ([3]; FaSSIF (pH 6.5), LOQ = 0.002517 mg/mL): LOQ
- Final pH ([3]; FaSSIF, pH 6.5): 6.44
- XRPD of solid after equilibration ([3]; FaSSIF, pH 6.5): No change
- solubility at 24 h ([3]; FeSSIF, pH 5.8, fessif, FeSSIF (pH 5.8), LOQ = 0.002517 mg/mL): 3.2 µg/mL
- Final pH ([3]; FeSSIF, pH 5.8): 5.69
- XRPD of solid after equilibration ([3]; FeSSIF, pH 5.8): No change
- Final pH ([3]; SGF (pH 2)): 2.07
- XRPD of solid after equilibration ([3]; SGF (pH 2)): No change
- solubility at 24 h ([3]; SGF, pH 2, simulated gastric fluid, SGF (pH 2), LOQ = 0.002517 mg/mL): 2.2 µg/mL
- Final pH ([3]; Water): 7.22
- XRPD of solid after equilibration ([3]; Water): No change
- Solubility ([3]; Water, LOQ = 0.002517 mg/mL): LOQ
- solubility at 24 h ([3]; acetonitrile, organic solvent or mixture, Acetonitrile): > 10000 µg/mL
- solubility at 24 h ([3]; dichloromethane, organic solvent or mixture, Dichloromethane): > 10000 µg/mL
- solubility at 24 h ([3]; ethanol abs., organic solvent or mixture, Ethanol abs.): > 10000 µg/mL
- solubility at 24 h ([3]; ethyl acetate, organic solvent or mixture, Ethyl acetate): > 10000 µg/mL
- solubility at 24 h ([3]; methanol, organic solvent or mixture, Methanol): > 10000 µg/mL
- solubility at 24 h ([3]; octanol, organic solvent or mixture, Octanol): > 10000 µg/mL
- Final pH ([3]; pH 1 (0.1N HCl)): 1.06
- XRPD of solid after equilibration ([3]; pH 1 (0.1N HCl)): No change
- Solubility ([3]; pH 1 (0.1N HCl), LOQ = 0.002517 mg/mL): LOQ
- Final pH ([3]; pH 2 (0.01N HCl)): 2.12
- XRPD of solid after equilibration ([3]; pH 2 (0.01N HCl)): No change
- Solubility ([3]; pH 2 (0.01N HCl), LOQ = 0.002517 mg/mL): LOQ
- Final pH ([3]; pH 4.7 acetate buffer): 4.73
- XRPD of solid after equilibration ([3]; pH 4.7 acetate buffer): No change
- Solubility ([3]; pH 4.7 acetate buffer, LOQ = 0.002517 mg/mL): LOQ
- Final pH ([3]; pH 6.8 phosphate buffer): 6.74
- XRPD of solid after equilibration ([3]; pH 6.8 phosphate buffer): No change
- Solubility ([3]; pH 6.8 phosphate buffer, LOQ = 0.002517 mg/mL): LOQ
- Final pH ([3]; pH 9.0 borate buffer): 8.88
- XRPD of solid after equilibration ([3]; pH 9.0 borate buffer): No change
- Solubility ([3]; pH 9.0 borate buffer, LOQ = 0.002517 mg/mL): LOQ
- Color (CL) [5, 8]: A
- Color (CL) [5, 9]: A
- Color (CL) [5, 10]: A
- Color (CL) [5, 11]: A
- Color (CL) [5, 12]: A
- Color (CL) [5, 13]: A
- Color (CL) [5, 14]: A
- Color (CL) [5, 15]: A
- Color (CL) [5, 16]: A
- Color (CL) [5, 17]: A
- Factor of bulk density, Monohydrate HA versus Modification A ([6]; 696 kg/m^3 versus 71 kg/m^3): ~10
- Bulk flowability with ring shear tester, rating in words ([6]; under 1250 Pa normal stress): “free flowing”
- Technical measurement of bulk flowability with ring shear tester ([6]; under 1250 Pa normal stress): 13.7
- Technical measurement of bulk density with ring shear tester ([6]; under no consolidation stress): 696 kg/m^3
- Factor of diameter X10, Monohydrate HA vs. Modification A ([7]; 131 μm vs. 2 μm): > 10
- Diameter X of PSD measured during release, X50 [7, 18]: X50: 277 μm
- Diameter X of PSD measured during release, X90 [7, 18]: X90: 414 μm
SMILES: Cc1ccc(NC(=O)c2ccnc(C(F)(F)F)c2)cc1-c1cc(OCCO)nc(N2CCOCC2)c1 [Monohydrate HA, N-(3-(2-(2-hydroxyethoxy)-6-morpholinopyridin-4-yl)-4-methylphenyl)-2-(trifluoromethyl)isonicotinamide]
- Stability upon compression, grinding and wet granulation with water [4]: stable upon compression, grinding and wet granulation with water
